Laboratory results: ChEMBL document CHEMBL1938277, “N-acylaminophenothiazines: neuroprotective agents displaying multifunctional activities for a potential treatment of Alzheimer's disease” (Eur J Med Chem, 2011)

Experiments:
SH-SY5Y [1] = experiment: Neuroprotective activity against H2O2-induced cell death in human SH-SY5Y cells assessed as LDH release at 1 uM incubated for 24 hrs before H2O2 challenge measured after 24 hrs relative to control; assay type: functional
SH-SY5Y [2] = experiment: Neuroprotective activity against H2O2-induced cell death in human SH-SY5Y cells assessed as LDH release at 10 uM incubated for 24 hrs before H2O2 challenge measured after 24 hrs relative to control; assay type: functional
in vitro = conditions: PAMPA
Description: Permeability of the compound by PAMPA assay

SH-SY5Y [3] = experiment: Neuroprotective activity against H2O2-induced cell death in human SH-SY5Y cells assessed as LDH release at 3 uM incubated for 24 hrs before H2O2 challenge measured after 24 hrs relative to control; assay type: functional
SH-SY5Y [4] = experiment: Neuroprotective activity against H2O2-induced cell death in human SH-SY5Y cells assessed as LDH release at 30 uM incubated for 24 hrs before H2O2 challenge measured after 24 hrs relative to control; assay type: functional
Cholinesterase = Cholinesterase (Equus caballus, UniProt P81908)
Description: Inhibition of BuChE in horse serum using butyrylthiocholine as substrate by Ellman method

Acetylcholinesterase = target: T1, Acetylcholinesterase (Bos taurus, UniProt P23795); experiment: biochemical
T1 sequence (P23795 whole entry): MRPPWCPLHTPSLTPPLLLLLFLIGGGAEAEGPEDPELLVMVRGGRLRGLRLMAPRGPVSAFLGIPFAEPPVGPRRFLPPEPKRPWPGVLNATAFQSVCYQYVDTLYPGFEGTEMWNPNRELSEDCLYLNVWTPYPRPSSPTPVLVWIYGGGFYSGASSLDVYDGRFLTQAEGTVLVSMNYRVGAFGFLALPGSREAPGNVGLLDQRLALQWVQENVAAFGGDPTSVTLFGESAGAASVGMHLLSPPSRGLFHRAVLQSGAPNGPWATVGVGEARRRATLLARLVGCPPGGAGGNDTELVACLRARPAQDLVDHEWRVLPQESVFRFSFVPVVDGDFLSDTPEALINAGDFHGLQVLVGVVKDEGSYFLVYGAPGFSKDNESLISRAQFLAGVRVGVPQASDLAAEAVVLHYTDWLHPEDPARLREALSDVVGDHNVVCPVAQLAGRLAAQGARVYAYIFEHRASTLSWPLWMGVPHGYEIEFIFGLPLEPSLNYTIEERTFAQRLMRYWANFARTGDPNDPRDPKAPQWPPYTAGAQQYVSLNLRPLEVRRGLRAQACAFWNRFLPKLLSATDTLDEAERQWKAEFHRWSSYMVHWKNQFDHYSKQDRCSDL
Description: Inhibition of AChE in bovine erythrocytes using acetylthiocholine as substrate by Ellman method

SH-SY5Y [5] = experiment: Neuroprotective activity against amyloid beta 1 to 42-induced cell death in human SH-SY5Y cells assessed as increase in cell viability at 10 nM pre-incubated for 24 hrs before amyloid beta 1 to 42 challenge measured after 24 hrs by MTT assay relative to control; assay type: functional
SH-SY5Y [6] = experiment: Neuroprotective activity against okadaic acid-induced cell death in human SH-SY5Y cells assessed as LDH release at 0.3 uM treated 24 hrs before okadaic acid challenge measured after 24 hrs relative to control; assay type: functional
SH-SY5Y [7] = experiment: Neuroprotective activity against rotenone/oligomycin A-induced cell death in human SH-SY5Y cells assessed as LDH release at 0.3 uM after 24 hrs relative to control; assay type: functional
SH-SY5Y [8] = experiment: Neuroprotective activity against FPL64176-induced toxicity in human SH-SY5Y cells assessed as increase in cell viability at 10 uM treated 24 hrs before FPL64176 challenge measured after 24 hrs by MTT assay relative to control; assay type: functional
SH-SY5Y [9] = experiment: Antioxidant activity in human SH-SY5Y cells assessed as sequestering of rotenone/oligomycin A-induced mitochondrial free radicals at 0.3 uM after 120 mins by DCFH-DA assay; assay type: functional
SH-SY5Y [10] = experiment: Neuroprotective activity against FPL64176-induced toxicity in human SH-SY5Y cells assessed as increase in cell viability at 0.3 uM treated 24 hrs before FPL64176 challenge measured after 24 hrs by MTT assay relative to control; assay type: functional
SH-SY5Y [11] = experiment: Neuroprotective activity against rotenone/oligomycin A-induced cell death in human SH-SY5Y cells assessed as LDH release at 3 uM treated 24 hrs before rotenone/oligomycin A challenge measured after 24 hrs relative to control; assay type: functional
SH-SY5Y [12] = experiment: Neuroprotective activity against okadaic acid-induced cell death in human SH-SY5Y cells assessed as LDH release at 3 uM treated 24 hrs before okadaic acid challenge measured after 24 hrs relative to control; assay type: functional
SH-SY5Y [13] = experiment: Neuroprotective activity against amyloid beta 1 to 42-induced cell death in human SH-SY5Y cells assessed as increase in cell viability at 0.3 uM pre-incubated for 24 hrs before amyloid beta 1 to 42 challenge measured after 24 hrs by MTT assay relative to control; assay type: functional
SH-SY5Y [14] = experiment: Neuroprotective activity against rotenone/oligomycin A-induced cell death in human SH-SY5Y cells assessed as LDH release at […] after 24 hrs relative to control; assay type: functional
SH-SY5Y [15] = experiment: Neuroprotective activity against amyloid beta 1 to 42-induced cell death in human SH-SY5Y cells assessed as increase in cell viability at 3 uM pre-incubated for 24 hrs before amyloid beta 1 to 42 challenge measured after 24 hrs by MTT assay relative to control; assay type: functional
SH-SY5Y [16] = experiment: Cytotoxicity against human SH-SY5Y cells; assay type: cell-based
SH-SY5Y [17] = experiment: Neuroprotective activity against okadaic acid-induced cell death in human SH-SY5Y cells assessed as LDH release at 1 uM treated 24 hrs before okadaic acid challenge measured after 24 hrs relative to control; assay type: functional
SH-SY5Y [18] = experiment: Neuroprotective activity against amyloid beta 1 to 42-induced cell death in human SH-SY5Y cells assessed as increase in cell viability at 1 uM pre-incubated for 24 hrs before amyloid beta 1 to 42 challenge measured after 24 hrs by MTT assay relative to control; assay type: functional
SH-SY5Y [19] = experiment: Neuroprotective activity against rotenone/oligomycin A-induced cell death in human SH-SY5Y cells assessed as LDH release at 1 uM treated 24 hrs before rotenone/oligomycin A challenge measured after 24 hrs relative to control; assay type: functional
SH-SY5Y [20] = experiment: Neuroprotective activity against rotenone/oligomycin A-induced cell death in human SH-SY5Y cells assessed as LDH release at 1 uM after 24 hrs relative to control; assay type: functional
SH-SY5Y [21] = experiment: Neuroprotective activity against FPL64176-induced toxicity in human SH-SY5Y cells assessed as increase in cell viability at 1 uM treated 24 hrs before FPL64176 challenge measured after 24 hrs by MTT assay relative to control; assay type: functional
SH-SY5Y [22] = experiment: Neuroprotective activity against rotenone/oligomycin A-induced cell death in human SH-SY5Y cells assessed as LDH release at 0.3 uM treated 24 hrs before rotenone/oligomycin A challenge measured after 24 hrs relative to control; assay type: functional
SH-SY5Y [23] = experiment: Inhibition of potassium chloride-induced cytosolic calcium level in human SH-SY5Y cells at 10 uM treated after 10 mins before potassium chloride challenge by Fluo-4/AM fluorescence assay; assay type: functional
SH-SY5Y [24] = experiment: Neuroprotective activity against rotenone/oligomycin A-induced cell death in human SH-SY5Y cells assessed as LDH release at 0.1 uM treated 24 hrs before rotenone/oligomycin A challenge measured after 24 hrs relative to control; assay type: functional
SH-SY5Y [25] = experiment: Neuroprotective activity against rotenone/oligomycin A-induced cell death in human SH-SY5Y cells assessed as LDH release at 0.1 uM after 24 hrs relative to control; assay type: functional

Chain of Cholinesterase (P81908 whole entry): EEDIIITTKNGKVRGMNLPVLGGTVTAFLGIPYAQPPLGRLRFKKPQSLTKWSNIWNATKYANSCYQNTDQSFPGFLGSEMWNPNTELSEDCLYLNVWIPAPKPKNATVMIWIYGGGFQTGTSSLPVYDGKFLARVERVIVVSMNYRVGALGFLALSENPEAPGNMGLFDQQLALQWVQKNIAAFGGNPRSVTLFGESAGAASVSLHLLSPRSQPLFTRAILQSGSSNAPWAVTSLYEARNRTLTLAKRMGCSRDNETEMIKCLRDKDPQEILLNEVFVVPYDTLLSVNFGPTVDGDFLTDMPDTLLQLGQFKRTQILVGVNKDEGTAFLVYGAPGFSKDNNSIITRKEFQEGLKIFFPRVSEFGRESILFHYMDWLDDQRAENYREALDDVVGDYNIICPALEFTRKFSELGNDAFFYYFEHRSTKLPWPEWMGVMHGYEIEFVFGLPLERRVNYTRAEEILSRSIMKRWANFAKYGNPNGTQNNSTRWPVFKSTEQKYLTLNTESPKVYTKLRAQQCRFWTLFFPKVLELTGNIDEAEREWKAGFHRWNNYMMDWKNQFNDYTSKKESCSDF

Structure (SMILES)	Activity (SH-SY5Y [1]) [%]	Activity (SH-SY5Y [2]) [%]	Papp (in vitro) [×10⁻⁶ cm/s]	Activity (SH-SY5Y [3]) [%]	Activity (SH-SY5Y [4]) [%]	IC50 (Cholinesterase) [µM]	IC50 (Acetylcholinesterase) [µM]	also measured
O=C(CN1CCCCC1)NN1c2ccccc2Sc2ccccc21	27.2	9.7	16.4	26.1	10.1	0.4	> 100	–
COc1ccc2c(c1)Sc1ccccc1N2NC(=O)CCN1CCCC1	17.8	0	8.7	11.8	0	0.8	> 100	–
CN1CCN(CCC(=O)NN2c3ccccc3Sc3ccccc32)CC1	82.9	22.8	17	34.5	6.3	1.3	> 100	–
CN(C)CC(=O)NN1c2ccccc2Sc2ccccc21	30.5	38.6	18.3	26.3	22	1.7	> 100	–
CC(=O)NN1c2ccccc2Sc2cc(Cl)ccc21	40.3	37.2	9.8	52.2	21.2	> 100	> 100	–
CN(C)CC(=O)NN1c2ccccc2Sc2ccc(Cl)cc21	15.6	42.6	13.5	29.5	23.2	7.1	> 100	–
O=C(CN1CCCC1)NN1c2ccccc2Sc2ccccc21	13.1	18.9	10.5	35.6	23.3	0.8	> 100	–
O=C(CN1CCCC1)NN1c2ccccc2Sc2ccc(Cl)cc21	17.4	54.8	11.2	48.9	55.6	4.3	> 100	–
O=C(CN1CCCCC1)NN1c2ccccc2Sc2ccc(Cl)cc21	66.1	73.8	9.1	80.8	76.4	> 100	> 100	–
COc1ccc2[nH]cc(CCNC(C)=O)c2c1 [MELATONIN]	–	–	–	–	–	–	–	Activity (SH-SY5Y [5]): 72%
O=C(CN1CCCCC1)NN1c2ccccc2Sc2cc(Cl)ccc21	25.4	44.9	14.7	55.2	17.8	0.7	> 100	–
CN1CCN(CCC(=O)NN2c3ccccc3Sc3cc([N+](=O)[O-])ccc32)CC1	41.3	46.2	14.6	46.5	31.7	1.5	> 100	–
O=C(CCN1CCCC1)NN1c2ccccc2Sc2cc(Cl)ccc21	34.4	29.4	16.4	57.2	49	3	> 100	–
CN1CCN(CCC(=O)NN2c3ccccc3Sc3cc(Cl)ccc32)CC1	43.9	68.6	13.8	56.6	72.8	0.9	> 100	–
COc1ccc2c3c1O[C@H]1C[C@@H](O)C=C[C@@]31CCN(C)C2 [GALANTAMINE]	–	–	–	–	–	–	–	Activity (SH-SY5Y [6]): 36%
O=C(CN1CCCCC1)NN1c2ccccc2Sc2cccc(Cl)c21	1.1	0	13.9	9.9	32.6	2.2	> 100	–
O=C(CN1CCCC1)NN1c2ccccc2Sc2cc(Cl)ccc21	54.6	79.9	14.9	57.7	69.5	1	> 100	Activity (SH-SY5Y [7]): 28.6%; Activity (SH-SY5Y [8]): 36.3%; Activity (SH-SY5Y [6]): 28.3%; Activity (SH-SY5Y [9]): 14.7%; Activity (SH-SY5Y [10]): 39.8%; Activity (SH-SY5Y [11]): 58.9%; Activity (SH-SY5Y [12]): 29%; Activity (SH-SY5Y [13]): 91.3%; Activity (SH-SY5Y [14]): 44.3%; Activity (SH-SY5Y [15]): 13.6%; Activity (SH-SY5Y [16]): Non-toxic; Activity (SH-SY5Y [17]): 32%; Activity (SH-SY5Y [18]): 81.3%; Activity (SH-SY5Y [19]): 51.8%; Activity (SH-SY5Y [20]): 44.1%; Activity (SH-SY5Y [21]): 44.5%; Activity (SH-SY5Y [22]): 55%
Cc1c(C)c2c(c(C)c1O)CCC(C)(C(=O)O)O2 (stereo unspecified) [TROLOX]	–	–	–	–	57.7	–	–	Activity (SH-SY5Y [9]): 27.8%; Activity (SH-SY5Y [11]): 65.1%; Activity (SH-SY5Y [14]): 63.7%
COC(=O)C1=C(C)NC(C)=C(C(=O)OC)C1c1ccccc1[N+](=O)[O-] [NIFEDIPINE]	–	–	–	–	–	–	–	inhibition at 10 µM (SH-SY5Y [23]): 45%
COc1ccc2c(c1)Sc1ccccc1N2NC(=O)CCN1CCN(C)CC1	49.5	66.5	16.8	42.1	55.1	2	> 100	Activity (SH-SY5Y [7]): 57.9%; Activity (SH-SY5Y [9]): 24.2%; Activity (SH-SY5Y [24]): 37.2%; Activity (SH-SY5Y [16]): Non-toxic; Activity (SH-SY5Y [19]): 50.8%; Activity (SH-SY5Y [20]): 65.4%; Activity (SH-SY5Y [25]): 66.3%; Activity (SH-SY5Y [22]): 49.4%
O=C(CCN1CCCC1)NN1c2ccccc2Sc2ccccc21	90.1	88	17.3	81.4	72.5	1.4	> 100	Activity (SH-SY5Y [7]): 63.7%; Activity (SH-SY5Y [9]): 23.8%; Activity (SH-SY5Y [24]): 58.8%; Activity (SH-SY5Y [16]): Non-toxic; Activity (SH-SY5Y [19]): 16.5%; Activity (SH-SY5Y [20]): 52.6%; Activity (SH-SY5Y [25]): 66.1%; Activity (SH-SY5Y [22]): 42.4%
CN(C)CC(=O)NN1c2ccccc2Sc2cc(Cl)ccc21	59.8	28.2	15.5	62.7	9.7	5	> 100	–
